From US8889411B2, “Modulation of stem and progenitor cell differentiation, assays, and uses thereof” (Anthrogenesis Corporation, priority 2002, dated 2014)

Assays:
[1] = tested on: cells derived from CD34+ progenitor cells; assay: Phagocytosis: FITC-dextran uptake (mannose receptor-mediated endocytosis); type: cell-based, human; details: compared to DMSO control
Experimental: Phagocytosis: The endocytic activity of the cells was analyzed by measuring FITC-dextran uptake. Cells were incubated with 1 mg/ml dextran-FITC (Sigma) in complete medium at 37° C. for 1 hour and 4° C. for 1 hour as a negative control. Results presented are representative of two independent experiments.

[2] = tested on: allogenic CD3+ T cells stimulated by CD34+-derived DC cells; assay: T cell proliferation assay (Mixed Leucocyte Reaction); type: cell-based, human; details: compared to DMSO control
Experimental: T cell proliferation assay: After 13 days of culture, CD34^+-derived DC cells were collected, and after treatment with mitomycin C (50 μg/ml, Sigma), used as stimulators cells for allogenic adult CD3^+ T cells purified from peripheral blood mononuclear cells (PBMCs) from healthy volunteers. CD3^+ T responder cells were used at a concentration of 5×10^4 cells/well. Stimulators cells were added in graded doses to the T cells in black 96-well flat bottom, clear bottom tissue culture plates for chemiluminescence detection. Cultures were performed in RPMI 1640 medium supplemented with 10% heat-inactivated FBS, glutamine and Penicillin-streptomycin. After 6 days of culture, cell proliferation was measured with the BrdU chemiluminescence assay (Roche, Nutley N.J.), following manufacturer instructions. Results are presented as the mean±SD obtained from triplicate cultures.

[3] = tested on: CD1a+CD14− and CD1a−CD14+ cells (DC progenitors); assay: Detection of apoptosis (Annexin V-FITC / propidium iodide) in isolated DC progenitors; type: cell-based, human; details: 1 μM; 2 days; GM-CSF and TNF-α
Experimental: Detection of apoptosis: Phosphatidyl serine exposure was determined using Annexin V-FITC staining in combination with propidium iodide (BD Pharmingen apoptosis detection kit I) following manufacturer instruction.
Block in DC generation is not mediated by specific killing of the DC progenitors: To determine if the decrease in DC progenitors was mediated by specific killing, CD34^+ progenitor cells were cultured for a period of 6 days in the presence of SCF, Flt-3L, GM-CSF and TNF-α. At day 6, CD1a^+CD14^− and […] cells (DC progenitors) were isolated by magnetic cell sorting (Miltenyi). Purified populations were cultured for an additional 2 days in the presence of GM-CSF and TNF-α with or without ACTIMID™ (1 μM).

[4] = tested on: Cord blood CD34+ hematopoietic progenitor cells; assay: Colony forming unit (CFU) generation from cord blood CD34+ cells; type: cell-based, human; details: IL-3, G-CSF, kit-ligand, vs DMSO
Experimental: FIG. 1. Bar graph indicating results of culturing cord blood CD34+ cells in the presence of Thalidomide (THD), ACTIMID™, and REVIMID™ at concentrations of 1 μg/ml and 10 μg/ml. An equal volume of DMSO was used as a negative control. Hematopoietic colonies of burst forming units-erythroid (BFU-E), colony forming units-erythroid (CFU-E), colony forming units-granulocyte macrophage (CFU-GM) and total numbers of colonies (CFU-Total) were scored under the light microscope at day 14 of culture. Y-axis: numbers of colonies. See Section 6.1 for details.
Cord blood CD34+ hematopoietic progenitor cells were plated in 96 well cultivation dishes at a density of 1000 cells per well in IMDM supplemented with 20% fetal calf serum and cytokines (IL-3, G-CSF and kit-ligand (R&D Systems, Inc.) The cells were exposed to Thalidomide (Thal), ACTIMID™ and REVIMID™, or DMSO (a control compound), and allowed to culture for 6 days. […] After culturing, cells were stained and sorted with a fluorescence activated. cell sorter (FACS). 400 μL of stained cells were harvested and diluted to 1.0 ml with 1% fetal calf serum in phosphate buffered saline (PBS). Cells were counted to determine the effect of modulation of stem cell differentiation.

[5] = tested on: Human Cord Blood MNC Cells; assay: FACS analysis of cryopreserved and thawed cord blood MNCs after 1 week of culture with cytokines; type: cell-based; details: 5 μg in 1.7 μl DMSO, average +/− SD of three wells
Experimental: Cord blood MNCs that had been cryopreserved and thawed using standard methods were isolated by standard Ficoll separation method and cultured in 24 well-plate at 0.5×10^6 cells/ml in 20% FCS-IMDM with cytokines (1L6, KL and G-CSF 10 ng/ml each) in triplicates. The experimental groups were None (cytokines only), DMSO (1.7 μl), ACTIMID™ (5.0 μg in 1.7 μl DMSO), REVIMID™ (5 μg in 1.7 μl DMSO). The cultured cells were harvested and analyzed by FACS staining after 1 week of culture. The data are expressed as an average +/− SD from three independent wells.

[6] = tested on: human cord blood CD45+ cells; assay: Flow cytograms of cord blood CD45+ cells cultured 14 days with IL3, IL6, G-CSF, Epo and KL; type: cell-based; details: 5 μg/ml
Experimental: (§1) FIGS. 9(A-F). Flow cytograms. […] Cord blood CD45+ cells were cultured for 14 days with cytokines IL3, IL6, G-CSF, Epo and KL. Percentages indicated on each cytogram indicate the percentage of the cell population expressing a particular combination of markers. A. Control, immunoglobulin (Ig). B. Control, no compound added. C. DMSO (5 μg/ml). D. Thal (5 μg/ml). E. ACTIMID™ (5 μg/ml). F. REVIMID™ (5 μg/ml). X-axis: relative intensity of CD38 (FL1-H) staining. Y-axis: relative intensity of CD19 (FL2-H) staining. See Section 6.3 for details.
as §1, with “10(A-F).” for “9(A-F).”, “CXCR5” for “CD38”, “CD34” for “CD19”

Nc1cccc2c1C(=O)N(C1CCC(=O)NC1=O)C2=O (stereo not shown) [ACTIMID™, 4-(Amino)-2-(2,6-dioxo(3-piperidyl))-isoindoline-1,3-dione]
phagocytic capacity at day 12 ([1]; compound from day 1 to day 12): strong decrease
phagocytic capacity at day 12 ([1]; compound from day 6 to day 12): comparable
capacity to stimulate the proliferation of T-cells ([2]; compound from day 1 to day 12): reduced capacity
capacity to stimulate the proliferation of T-cells ([2]; compound from day 6 to day 12): comparable
level of annexin V+-PI− (early apoptosis) and annexin V+-PI+ (late apoptosis) populations [3]: no significant increase
generation of erythropoietic colonies (BFU-E and CFU-E) [4]: suppress
generation of leukocyte and platelet forming colonies (CFU-GM) [4]: augmenting
total colony forming unit (CFU-Total) production [4]: enhancing
CD34(%) [5]: 3.31 +/− 0.64%
CD34+CD38−(%) [5]: 1.70 +/− 0.22%
CXCR4+CD45+(%) [5]: 2.9 +/− 0.5%
CXCR4+CD45−(%) [5]: 4.27 +/− 0.23%
Total CD34+ cells [5]: 7800 +/− 2600
Total cells (1 × 10^6) [5]: 0.223 +/− 0.06 1 × 10^6
differentiation into B cells (CD19/CD38 staining) ([6]; FIG. 9): minor suppressive effects
repression of CXCR5 produced by exposure to DMSO ([6]; FIG. 10): overcomes the repression
